Common to all, as to type: ADME, organism-based
Holding throughout (details): in vivo

Data set [1] can be described thus: Cmax in C57BL/6 mouse at 10 mg/kg, po measured for 24 hrs by LC/MS/MS analysis. The arrangement: time 24 hrs, dose 10 mg/kg, route po.
Data set [2] in a line: AUClast in C57BL/6 mouse at 10 mg/kg, po measured for 24 hrs by LC/MS/MS analysis. The arrangement: dose 10 mg/kg, time 24 hrs, route po.
Data set [3] can be described thus: AUC (infinity) in C57BL/6 mouse at 10 mg/kg, po measured for 24 hrs by LC/MS/MS analysis. The arrangement: dose 10 mg/kg, time 24 hrs, route po.
A short description of data set [4]: Tmax in C57BL/6 mouse at 10 mg/kg, po measured for 24 hrs by LC/MS/MS analysis.
Data set [5] in a line: Half life in C57BL/6 mouse at 10 mg/kg, po measured for 24 hrs by LC/MS/MS analysis.
Data set [6] in a line: Tmax in C57BL/6 mouse at 25 mg/kg, ip measured for 24 hrs by LC/MS/MS analysis.
Data set [7] in a line: AUC (infinity) in C57BL/6 mouse at 25 mg/kg, ip measured for 24 hrs by LC/MS/MS analysis. Also noted: time 24 hrs, dose 25 mg/kg, route ip.
Data set [8] in a line: Cmax in C57BL/6 mouse at 25 mg/kg, ip measured for 24 hrs by LC/MS/MS analysis. The arrangement: dose 25 mg/kg, time 24 hrs, route ip.
The nature of data set [9]: AUClast in C57BL/6 mouse at 25 mg/kg, ip measured for 24 hrs by LC/MS/MS analysis. The arrangement: dose 25 mg/kg, time 24 hrs, route ip.
The nature of data set [10]: Half life in C57BL/6 mouse at 25 mg/kg, ip measured for 24 hrs by LC/MS/MS analysis.

“And” between values parts separate entries of the source, which are not always exact repeats. Equal values may be shown once.

On to `CC(=O)c1c(C)c2cnc(Nc3ccc(N4CCN(CC5CCN(c6ccc7c(c6)C(=O)N(C6CCC(=O)NC6=O)C7=O)CC5)CC4)cn3)nc2n(C2CCCC2)c1=O` (stereo not given), for which the Cmax in data set [1] came to 724 ng/mL. The AUC(0-t) at 24 h in [2] is 2470 ng·h/mL. In data set [3], this compound gave an AUC(0-inf) of 2730 ng·h/mL. Further, in data set [4], the time of peak concentration (Tmax) came out at 1 h. For the same compound, in [5], the half-life is 2.15 h.
As to `CC(=O)c1c(C)c2cnc(Nc3ccc(N4CCN(CCCCC(=O)N[C@H](C(=O)N5C[C@H](O)C[C@H]5C(=O)N[C@@H](C)c5ccc(-c6scnc6C)cc5)C(C)(C)C)CC4)cn3)nc2n(C2CCCC2)c1=O`, the Tmax in [6] amounted to 0.58 h. Besides, the AUC(0-inf) in [7] was 9230 ng·h/mL. The Cmax in [8] is 2550 ng/mL and 2.6 µM. In data set [9], this compound gave an area under the curve AUC(0-t) at 24 h of 8210 ng·h/mL. In data set [10], the half-life is 7 h.
